pIC50: −log10 of the molar value.
Legend:
[1] = test system: BMP-induced phosphorylation of SMAD1/5/8; assay: BMP4-induced phosphorylation of SMAD1/5/8, cytoblot (cellular ELISA); assay type: cell-based, murine; details: Mus musculus; FIG. 1; approximate; read-out: functional IC50, BMP4-induced SMAD1/5/8 phosphorylation
Method: Murine pulmonary artery smooth muscle cells were isolated, explanted and cultured as previously described (see […] et al. Am. J. Physiol. Lung Cell Mol. Physiol. 280:[…], 2001) and then grown to confluence in 96 well tissue culture plates. Cells were incubated in serum-free medium for 18 h, and then incubated with recombinant BMP2, BMP4, BMP6, BMP9, GDF5, TGF-β, or Activin A ligands (R&D Systems, Minneapolis, Minn.) at varying concentrations in duplicate for 20 minutes. […] Specificity for BMP-mediated signaling was determined separately using a modification of the cellular ELISA technique assaying for the activation of SMAD2 or SMAD3 via TGF-β, or Activin A. A corresponding IC50 was calculated for the effects of these compounds upon those signaling pathways.

PDGFR-mediated signaling = assay: PDGF-induced AKT phosphorylation, cellular ELISA in PaSMCs; assay type: cell-based, murine
Method: To test the relative effects of dorsomorphin and structurally-related compounds upon PDGFR-mediated signaling, PDGF-induced AKT phosphorylation was measured by cellular ELISA via the detection of phospho-AKT in PaSMCs treated with compounds for 10 min. followed by PDGF for 30 min.

hepcidin [2] = assay: Pseudomonas aeruginosa-induced hepcidin expression in zebrafish embryos; assay type: in vivo; details: 6 μM; 5 h after PsA injection; RT-qPCR; FIG. 6
Description: The following describes the development an in vivo model of inflammation-induced hepcidin expression that is amenable to facile genetic and pharmacological manipulation. The zebrafish is an attractive organism because it enables rapid knockdown of gene function via morpholino oligonucleotides and because it is highly amenable to pharmacological manipulation. Live Pseudomonas aeruginosa (PsA) were microinjected into the yolk of three-day-old zebrafish to induce a rapid and robust inflammatory response. It was determined that injection of bacteria induces robust expression of inflammatory markers. Embryos were injected with 5000 live PsA bacteria or phosphate PBS at 48 hpf and harvested 5 h later. TNFα, serum amyloid A (SAA), IL-1β, and IL-11α mRNA levels were measured by RT-qPCR (FIG. 5; *P<0.001 vs PBS, #P<0.002 vs. PBS). […] Next, it was examined whether the inflammatory response evoked by PsA in zebrafish is accompanied by induction of hepcidin.

hepcidin [3] = assay: Turpentine-induced hepatic hepcidin expression time course; assay type: in vivo, C57BL/6 mice; details: 3 mg/kg IP every 12 h; compared to vehicle; FIG. 13
C57BL/6 wild-type mice = assay: 30-day treatment of wild-type mice, circulating blood cell lineages; assay type: in vivo, C57BL/6 mice
hematopoietic stem cells = assay: Frequency of hematopoietic stem cells in bone marrow, multicolor flow cytometry; assay type: in vivo, C57BL/6 mice; details: 3 mg/kg/d IP for 30 days; versus vehicle-injected controls; FIG. 15
Method: Ten week-old male C57BL/6 mice were treated chronically with compound 13 (3 mg/kg/d IP) for 30 days, and bone marrow harvested and subjected to multicolor flow cytometry to quantify hematopoietic stem cell lineages based on cell surface marker expression.

hepcidin [4] = assay: Hepatic hepcidin expression in the steady state after 30 days treatment; assay type: in vivo, C57BL/6 mice; details: 3 mg/kg/d IP for 30 days; FIG. 16
Method: Ten-week-old male C57BL/6 mice fed a normal iron replete diet were treated chronically with compound 13 (3 mg/kg/d IP) or vehicle for 30 days, and hepatic hepcidin mRNA levels were measured by quantitative RT-PCR.

hepcidin [5] = assay: Hepcidin expression in IL-6-expressing transgenic zebrafish; assay type: in vivo; details: 6 uM by bathing overnight; 7 days postfertilization; FIG. 22
Method: IL-6 expression was driven in the cardiomyocytes of living zebrafish by mating transgenic zebrafish expressing the Gal4 protein under the control of the cardiac myosin light chain 2 (cmlc) promoter with transgenic zebrafish carrying the human IL-6 gene under the control of a UAS upstream activation sequence (IL-6). Animals carrying both transgenes expressed IL-6 in their cardiomyocytes. IL-6-expressing animals were treated with 6 uM compound 13 or DMSO control by bathing overnight (FIG. 22). At 7 days postfertilization, animals were lysed, total RNA was extracted, and hepcidin expression levels were determined by quantitative RT-PCR with normalization to the housekeeping gene RPL13.

LDL-R-deficient mice = assay: Vascular calcification in high-fat diet fed LDL-R-deficient mice, Osteosense probe imaging of aortas; assay type: in vivo; details: 16 weeks high fat diet; compound 13 mg/kg IP twice daily; FIG. 24
Method: Adult (10 week old) LDL-R-deficient mice on a C57BL/6 background were subjected to a high-lipid atherogenic diet, concurrently with vehicle treatment or drug treatment (compound 13 mg/kg IP twice daily) started simultaneously with atherogenic diet. After 16 weeks of high fat diet and drug treatment, aortas, carotids, and left ventricular outflow tract were harvested and prepared as appropriate for histochemical staining or immunohistological staining, by en face mounting and fixation, or for paraffin embedded tissue sections for histology. To analyze early osteogenesis (as a precursor to calcification), mice were injected intravenously with Osteosense probe (VisEn) 24 hours prior to harvest, and harvested aortas were rinsed with phosphate buffered saline. Visualization of Osteosense probe was accomplished by near-IR fluorescence ([…]) using a LICOR laser scanner. This technique readily detected signal in aortas obtained from high-fat diet LDL-R-deficient mice treated with vehicle control (e, f, and g), while relatively little background signal was obtained in wild-type mice given a normal diet (a, b). Non-fluorescent imaging of wild-type aortas is also depicted (c, d).

[6] = test system: constitutively-active mutant form of ALK2
[7] = C57BL/6, mouse, in vivo, ip, 3 mg/kg, 8 h
Method: Preliminary pharmacokinetic studies were performed by intraperitoneally administering to wild-type mice (C57BL/6) one dose (3 mg/kg) of compound 13 (FIG. 23). Pharmacokinetics via plasma levels of compound 13 were serially measured in individual mice at varying intervals after injection by LC-MS/MS (n=3 mice each point, mean±s.d.).

[8] = 3 mg/kg/d IP for 30 days, average (n = 4)

## c1ccc2c(-c3cnn4cc(-c5ccc(N6CCNCC6)cc5)cnc34)ccnc2c1 [Compound 13, 4-[6-(4-piperazin-1-ylphenyl)pyrazolo[1,5-a]pyrimidin-3-yl]quinoline]
[1]
  pIC50: 8.00 to 8.30
PDGFR-mediated signaling
  selectivity for BMP signaling versus PDGF signaling: improves upon the selectivity
PDGFR-mediated signaling; Mus musculus, PASMC, compounds 10 min, then PDGF 30 min, FIG. 2, read-out: functional IC50, PDGF-induced AKT phosphorylation
  pIC50: ~5.70
Hepcidin [2]
  PsA-induced induction of hepcidin mRNA: almost completely blocked
Hepcidin [3]
  hepatic hepcidin elevation after turpentine: effectively suppressed hepcidin elevation at 24-96 hours
C57BL/6 wild-type mice; 3 mg/kg/d IP for 30 days
  myelosuppression, thrombocytopenia, anemia or erythrocytosis: did not appear to cause myelosuppression, thrombocytopenia, anemia or conversely erythrocytosis
C57BL/6 wild-type mice; [8]
  % Lymphocyte: 63.1%
  % Monocyte: 3.8%
  % Neutrophil: 30.8%
  % Reticulocyte: 2.6%
  Hb: 11.9 g/dL
  Hct: 43.8%
  MCHC: 27.3 g/dL
  MCV: 48.5 fL
  Platelet count: 8.305e+11 L⁻¹
  RBC: 9e+12 L⁻¹
  RDW: 18.6%
  Total WBC: 1.9e+09 L⁻¹
C57BL/6 wild-type mice; 30 days treatment, compared to vehicle-treated controls, data not shown
  serum iron in the steady state: did not cause an elevation of serum iron
Hematopoietic stem cells
  frequency of hematopoietic stem cells in the marrow: No significant difference
Hepcidin [4]
  basal hepatic hepcidin mRNA levels relative to vehicle-treated mice: 40%
Hepcidin [5]
  hepcidin expression in IL-6-expressing animals: reduced hepcidin expression to wild-type levels
LDL-R-deficient mice
  Osteosense near-IR fluorescence of aortas: less intense than that of vehicle-treated controls
[6]; FOP mutant mice, 3 mg/kg ip twice daily, FIG. 14
  ectopic calcification and disability: prevented the ectopic calcification and disability
[6]; wild type mice, 3 mg/kg BID
  skeletal development: exhibited normal skeletal development
[7]
  plasma levels relative to in vitro IC50 for BMP4-mediated activation of Smad1/5/8: 5 fold

Source: patent US9045484B2, “Inhibitors of the BMP signaling pathway” (The Brigham and Women's Hospital, Inc., priority 2008, dated 2015)
